Assay results taken from patent publication EP4226916A1, “LIPID NANOPARTICLE COMPRISING PHOSPHATIDYLSERINE” (Universität Basel, priority 2022, dated 2023).

Tested on: cellular uptake of PS-LNPs and LNPs
Test: Cellular uptake inhibition experiments
Type: cell-based
Conditions: at least 50% inhibition considered significant
Text: To elucidate mechanisms of cellular uptake and intracellular processing in the presence and absence of PS, we conducted a series of cellular uptake inhibition experiments. An arbitrary threshold of at least 50% inhibition was considered to be significant.

SMILES	inhibition of uptake of PS-LNPs	inhibition of uptake of LNPs (without PS)
CN(C)CCCN1c2ccccc2Sc2ccc(Cl)cc21 [Chlorpromazine]	specifically inhibited	–
COc1cc2c(c(OC)c1OC)-c1ccc(OC)c(=O)cc1[C@@H](NC(C)=O)CC2 [Colchicine]	specifically inhibited	specifically inhibited
O=C(N/N=C/c1ccc(O)c(O)c1)c1cc2ccccc2cc1O [Dynasore]	specifically inhibited	specifically inhibited
